Experimental data as given in patent US20100298141A1, “SUBSTITUTED PYRIDINE N-OXIDE HERBICIDES” (E. I. DU PONT DE NEMOURS AND COMPANY, priority 2007, published 2010).

What was measured:
[1] = test system: annual bluegrass; experiment: Test F preemergence test; type: in vivo, Poa annua; settings: scale 0 to 100; for Bluegrass plant response rating: 62 g ai/ha
How it was run: (§1)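 Test chemicals were formulated in a non-phytotoxic solvent mixture with surfactant and applied preemergence to planted seeds or postemergence to sugarcane plants. Plants were kept in a greenhouse for 14 to 21 days, then visually evaluated against controls.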

[2] = test system: Virginia dayflower; experiment: Test F preemergence test; type: in vivo, Commelina virginica; settings: scale 0 to 100; for Dayflower plant response rating: 62 g ai/ha
From the text: Seeds of plant species selected from bermudagrass (Cynodon dactylon), Surinam grass (Brachiaria decumbens), large crabgrass (Digitaria sanguinalis), green foxtail (Setaria viridis), goosegrass (Eleusine indica), johnsongrass (Sorghum halepense), kochia (Kochia scoparia), pitted morningglory (Ipomoea lacunosa), purple nutsedge (Cyperus rotundus), common ragweed (Ambrosia elation), mustard (Brassica nigra), guineagrass (Panicum maximum), […] (Paspalum dilatatum), barnyardgrass (Echinochloa crus-galli), southern sandbur (Cenchrus echinatus), common sowthistle (Sonchus oleraceous), prickly […] spinosa), Italian ryegrass (Lolium multiflorum), common purslane (Portulaca oleracea), broadleaf signalgrass (Brachiaria platyphylla), common groundsel (Senecio vulgaris), common chickweed (Stellaria media), Virginia dayflower (Commelina virginica), annual bluegrass (Poa annua), naked crabgrass (Digitaria nuda), […] cochinchinensis), quackgrass (Elytrigia repens), Canada horseweed (Conyza canadensis), field bindweed (Convolvulus arvensis), […] (Bidens bipinnata), common mallow (Malva sylvestris), Russian thistle (Salsola kali), and sugarcane (Saccharum officinarum) were planted and treated preemergence with test chemicals formulated in a non-phytotoxic solvent mixture which included a surfactant. At a different time, sugarcane was treated with postemergence applications of some of the test chemicals formulated in the same manner. Plants were approximately 3- to 4-leaf stage for the postemergence treatments. Treated plants and controls were maintained in a greenhouse for 14 to 21 days, after which time all species were compared to controls and visually evaluated. […] A dash (-) response means no test result.

[3] = test system: Surinam grass; experiment: Test F preemergence test; type: in vivo, Brachiaria decumbens; settings: scale 0 to 100; for Surinam Grass plant response rating: 62 g ai/ha
How it was run: as §1

[4] = test system: naked crabgrass; experiment: Test F preemergence test; type: in vivo, Digitaria nuda; settings: scale 0 to 100; for Crabgrass, Naked plant response rating: 62 g ai/ha
How it was run: as §1

[5] = test system: pitted morningglory; experiment: Test F preemergence test; type: in vivo, Ipomoea lacunosa; settings: scale 0 to 100; for Morningglory plant response rating: 62 g ai/ha
How it was run: as §1

[6] = test system: large crabgrass; experiment: Test F preemergence test; type: in vivo, Digitaria sanguinalis; settings: scale 0 to 100; for Crabgrass, Large plant response rating: 62 g ai/ha
How it was run: as §1

[7] = test system: morningglory; experiment: Test C pre-/postemergence test; type: in vivo, Ipomoea coccinea; settings: for Plant response rating, Morningglory: scale 0 to 100, 0 no effect, 100 complete control
How it was run: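 Seeds were planted and treated preemergence with test chemical in a non-phytotoxic solvent mixture containing surfactant. Postemergence applications of the same formulation went onto plants 2 to 18 cm tall (1- to 4-leaf stage). A dash marks no test result.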

[8] = test system: johnsongrass; experiment: Test F preemergence test; type: in vivo, Sorghum halepense; settings: scale 0 to 100; for Johnsongrass plant response rating: 62 g ai/ha
How it was run: as §1

[9] = test system: Italian ryegrass; experiment: Test F preemergence test; type: in vivo, Lolium multiflorum; settings: scale 0 to 100; for Ryegrass, Italian plant response rating: 62 g ai/ha
How it was run: as §1

[10] = test system: bermudagrass; experiment: Test F preemergence test; type: in vivo, Cynodon dactylon; settings: scale 0 to 100; for Bermudagrass plant response rating: 62 g ai/ha
How it was run: as §1

[11] = test system: goosegrass; experiment: Test F preemergence test; type: in vivo, Eleusine indica; settings: scale 0 to 100; for Goosegrass plant response rating: 62 g ai/ha
How it was run: as §1

[12] = test system: purple nutsedge; experiment: Test F preemergence test; type: in vivo, Cyperus rotundus; settings: scale 0 to 100; for Purple Nutsedge plant response rating: 62 g ai/ha
How it was run: as §1

[13] = test system: kochia; experiment: Test F preemergence test; type: in vivo, Kochia scoparia; settings: scale 0 to 100; for Kochia plant response rating: 62 g ai/ha
How it was run: as §1

[14] = test system: rice; experiment: Test C flooded paddy test; type: in vivo, Oryza sativa; settings: Flood
How it was run: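 Visual injury ratings against untreated controls, taken 13 to 15 days after compound was added to paddy water standing 3 cm above the soil.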

[15] = test system: broadleaf signalgrass; experiment: Test F preemergence test; type: in vivo, Brachiaria platyphylla; settings: scale 0 to 100; for Signalgrass plant response rating: 62 g ai/ha
How it was run: as §1

[16] = 31 g ai/ha, Preemergence, scale 0 to 100
[17] = 62 g ai/ha, preemergence, scale 0 (no effect) to 100 (complete control)
[18] = preemergence, 125 g ai/ha, scale 0 (no effect) to 100 (complete control)

Cc1cc[n+]([O-])c([S+]([O-])Cc2c(C(F)(F)F)nn(C)c2OC(F)F)c1 (stereo not shown) [Compound 1]
15: Plant response rating, Crabgrass, Naked ([4]; Preemergence, 16 g ai/ha)
70: Plant response rating, Crabgrass, Large ([6]; Preemergence, 31 g ai/ha) | Plant response rating, Johnsongrass ([8]; Preemergence, 16 g ai/ha) | Plant response rating, Goosegrass ([11]; Preemergence, 16 g ai/ha)
0: Plant response rating, Bluegrass ([1]; 8 g ai/ha, preemergence) | Plant response rating, Bluegrass ([1]; Preemergence, 16 g ai/ha) | Plant response rating, Dayflower ([2]; 8 g ai/ha, preemergence) | Plant response rating, Dayflower ([2]; Preemergence, 16 g ai/ha) | Plant response rating, Surinam Grass ([3]; 8 g ai/ha, preemergence) | Plant response rating, Surinam Grass ([3]; 16 g ai/ha, preemergence) | Plant response rating, Surinam Grass ([3]; Preemergence, 31 g ai/ha) | Plant response rating, Crabgrass, Naked ([4]; 8 g ai/ha, preemergence) | Plant response rating, Morningglory ([5]; 8 g ai/ha, preemergence) | Plant response rating, Crabgrass, Large ([6]; 8 g ai/ha, preemergence) | Plant response rating, Ryegrass, Italian ([9]; 8 g ai/ha, preemergence) | Plant response rating, Ryegrass, Italian ([9]; Preemergence, 16 g ai/ha) | Plant response rating, Bermudagrass ([10]; 8 g ai/ha, preemergence) | Plant response rating, Purple Nutsedge ([12]; 8 g ai/ha, preemergence) | Plant response rating, Purple Nutsedge ([12]; Preemergence, 16 g ai/ha) | Plant response rating, Kochia ([13]; 8 g ai/ha, preemergence) | Plant response rating, Kochia ([13]; Preemergence, 16 g ai/ha) | Plant response rating, Rice ([14]; 31 g ai/ha, scale 0 to 100 (0 no effect, 100 complete control)) | Plant response rating, Rice ([14]; 62 g ai/ha, scale 0 to 100, 0 no effect, 100 complete control, 13 to 15 days) | Plant response rating, Signalgrass ([15]; 8 g ai/ha, preemergence) | Plant response rating, Signalgrass ([15]; 16 g ai/ha, preemergence)
25: Plant response rating, Bluegrass ([1]; Preemergence, 31 g ai/ha) | Plant response rating, Goosegrass ([11]; 8 g ai/ha, preemergence) | Plant response rating, Signalgrass ([15]; Preemergence, 31 g ai/ha)
95: Morningglory plant response rating ([5]; Preemergence) | Crabgrass, Large plant response rating ([6]; Preemergence) | Goosegrass plant response rating ([11]; Preemergence)
85: Morningglory plant response rating [7, 16]
20: Plant response rating, Crabgrass, Large ([6]; Preemergence, 16 g ai/ha)
90: Surinam Grass plant response rating ([3]; Preemergence) | Plant response rating, Crabgrass, Naked ([4]; Preemergence, 31 g ai/ha) | Johnsongrass plant response rating ([8]; Preemergence) | Plant response rating, Johnsongrass ([8]; Preemergence, 31 g ai/ha) | Ryegrass, Italian plant response rating ([9]; Preemergence) | Kochia plant response rating ([13]; Preemergence)
40: Plant response rating (0 to 100), Morningglory ([7]; Postemergence, 31 g ai/ha) | Plant response rating, Morningglory ([7]; Postemergence, 62 g ai/ha) | Plant response rating, Bermudagrass ([10]; Preemergence, 16 g ai/ha) | Plant response rating, Bermudagrass ([10]; Preemergence, 31 g ai/ha)
35: Plant response rating, Johnsongrass ([8]; 8 g ai/ha, preemergence) | Plant response rating, Kochia ([13]; Preemergence, 31 g ai/ha)
45: Plant response rating, Morningglory ([7]; Postemergence, 125 g ai/ha)
50: Signalgrass plant response rating ([15]; Preemergence)
10: Plant response rating, Morningglory ([5]; Preemergence, 16 g ai/ha)
100: Dayflower plant response rating ([2]; Preemergence) | Crabgrass, Naked plant response rating ([4]; Preemergence) | Morningglory plant response rating [7, 17] | Plant response rating (0 to 100), Morningglory ([7]; Preemergence, 250 g ai/ha) | Morningglory plant response rating [7, 18]
75: Bluegrass plant response rating ([1]; Preemergence) | Plant response rating, Morningglory ([5]; Preemergence, 31 g ai/ha) | Plant response rating, Morningglory ([7]; Postemergence, 250 g ai/ha)
60: Plant response rating, Ryegrass, Italian ([9]; Preemergence, 31 g ai/ha) | Purple Nutsedge plant response rating ([12]; Preemergence) | Plant response rating, Purple Nutsedge ([12]; Preemergence, 31 g ai/ha)
80: Plant response rating, Dayflower ([2]; Preemergence, 31 g ai/ha) | Bermudagrass plant response rating ([10]; Preemergence) | Plant response rating, Goosegrass ([11]; Preemergence, 31 g ai/ha) | Plant response rating, Rice ([14]; 125 g ai/ha, scale 0 to 100, 0 no effect, 100 complete control, 13 to 15 days) | Plant response rating, Rice ([14]; 250 g ai/ha, scale 0 to 100 (0 no effect, 100 complete control))

Cn1nc(C(F)(F)F)c(C[S+]([O-])c2ccc(Cl)c[n+]2[O-])c1OC(F)F (stereo not shown) [Compound 6]
65: Plant response rating, Crabgrass, Naked ([4]; Preemergence, 16 g ai/ha) | Plant response rating, Bermudagrass ([10]; Preemergence, 31 g ai/ha) | Plant response rating, Signalgrass ([15]; Preemergence, 31 g ai/ha)
20: Plant response rating, Goosegrass ([11]; 8 g ai/ha, preemergence) | Plant response rating, Purple Nutsedge ([12]; Preemergence, 16 g ai/ha) | Plant response rating, Purple Nutsedge ([12]; Preemergence, 31 g ai/ha)
0: Plant response rating, Bluegrass ([1]; 8 g ai/ha, preemergence) | Plant response rating, Dayflower ([2]; 8 g ai/ha, preemergence) | Plant response rating, Surinam Grass ([3]; 8 g ai/ha, preemergence) | Plant response rating, Crabgrass, Naked ([4]; 8 g ai/ha, preemergence) | Plant response rating, Morningglory ([5]; 8 g ai/ha, preemergence) | Plant response rating, Morningglory ([5]; Preemergence, 16 g ai/ha) | Plant response rating, Crabgrass, Large ([6]; 8 g ai/ha, preemergence) | Morningglory plant response rating [7, 16] | Morningglory plant response rating [7, 17] | Plant response rating, Ryegrass, Italian ([9]; 8 g ai/ha, preemergence) | Plant response rating, Bermudagrass ([10]; 8 g ai/ha, preemergence) | Plant response rating, Purple Nutsedge ([12]; 8 g ai/ha, preemergence) | Plant response rating, Kochia ([13]; 8 g ai/ha, preemergence) | Plant response rating, Kochia ([13]; Preemergence, 16 g ai/ha) | Plant response rating, Kochia ([13]; Preemergence, 31 g ai/ha) | Plant response rating, Signalgrass ([15]; 8 g ai/ha, preemergence)
95: Crabgrass, Large plant response rating ([6]; Preemergence) | Johnsongrass plant response rating ([8]; Preemergence) | Plant response rating, Johnsongrass ([8]; Preemergence, 31 g ai/ha) | Goosegrass plant response rating ([11]; Preemergence) | Signalgrass plant response rating ([15]; Preemergence)
15: Plant response rating, Crabgrass, Large ([6]; Preemergence, 16 g ai/ha) | Plant response rating, Bermudagrass ([10]; Preemergence, 16 g ai/ha)
75: Plant response rating, Bluegrass ([1]; Preemergence, 31 g ai/ha) | Morningglory plant response rating ([5]; Preemergence) | Plant response rating, Morningglory ([5]; Preemergence, 31 g ai/ha) | Plant response rating, Johnsongrass ([8]; 8 g ai/ha, preemergence) | Plant response rating, Johnsongrass ([8]; Preemergence, 16 g ai/ha) | Plant response rating, Ryegrass, Italian ([9]; Preemergence, 31 g ai/ha) | Plant response rating, Goosegrass ([11]; Preemergence, 16 g ai/ha) | Purple Nutsedge plant response rating ([12]; Preemergence)
10: Plant response rating, Bluegrass ([1]; Preemergence, 16 g ai/ha) | Plant response rating (0 to 100), Morningglory ([7]; Postemergence, 31 g ai/ha) | Morningglory plant response rating [7, 18]
85: Ryegrass, Italian plant response rating ([9]; Preemergence)
60: Plant response rating, Surinam Grass ([3]; 16 g ai/ha, preemergence) | Kochia plant response rating ([13]; Preemergence)
70: Plant response rating, Surinam Grass ([3]; Preemergence, 31 g ai/ha) | Plant response rating, Crabgrass, Large ([6]; Preemergence, 31 g ai/ha) | Plant response rating (0 to 100), Morningglory ([7]; Preemergence, 250 g ai/ha)
80: Plant response rating, Crabgrass, Naked ([4]; Preemergence, 31 g ai/ha) | Bermudagrass plant response rating ([10]; Preemergence)
90: Bluegrass plant response rating ([1]; Preemergence) | Plant response rating, Dayflower ([2]; Preemergence, 16 g ai/ha) | Plant response rating, Dayflower ([2]; Preemergence, 31 g ai/ha) | Surinam Grass plant response rating ([3]; Preemergence) | Plant response rating, Goosegrass ([11]; Preemergence, 31 g ai/ha)
40: Plant response rating, Ryegrass, Italian ([9]; Preemergence, 16 g ai/ha)
50: Plant response rating, Morningglory ([7]; Postemergence, 62 g ai/ha) | Plant response rating, Morningglory ([7]; Postemergence, 125 g ai/ha) | Plant response rating, Morningglory ([7]; Postemergence, 250 g ai/ha) | Plant response rating, Signalgrass ([15]; 16 g ai/ha, preemergence)
100: Dayflower plant response rating ([2]; Preemergence) | Crabgrass, Naked plant response rating ([4]; Preemergence)
